Measurements as given in the supplement of paper PMC10307832.

What was measured:
Experiment in all cases: relative viability (nuclei count vs DMSO), 5 days (fraction); higher = more cells survive
[1] = compound: COC1=C(C=C(C=C1)C2=CC3=NC=CN3C(=N2)NC4=C(C=CC=N4)C(=O)N)OC [BAY61-3606] + CC(=O)c1c(C)c2cnc(Nc3ccc(N4CCNCC4)cn3)nc2n(C2CCCC2)c1=O [Palbociclib] (partner 0.5 µM)
Outline: (§1)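 Lung cancer cell lines in 1536-well plates got either a single drug or a fixed anchor-drug dose together with five library-drug doses (not always all listed) in √10 steps, by pin tool, on the day after seeding. Nuclei were counted after 5 days, and relative viability is the treated-to-vehicle ratio of nuclei counts. Values are medians of duplicate plates.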

[2] = compound: COC1=C(C=C(C=C1)C2=CC3=NC=CN3C(=N2)NC4=C(C=CC=N4)C(=O)N)OC [BAY61-3606] + Cc1nc(NC(=O)N2CCC[C@H]2C(N)=O)sc1-c1ccnc(C(C)(C)C(F)(F)F)c1 [Alpelisib] (partner 2 µM)
Outline: as §1

[3] = compound: COc1cccc2c1C(=O)c1c(O)c3c(c(O)c1C2=O)C[C@@](O)(C(=O)CO)C[C@@H]3O[C@H]1C[C@H](N)[C@H](O)[C@H](C)O1 [Doxorubicin] + CS(=O)(=O)N1CCN(Cc2cc3nc(-c4cccc5[nH]ncc45)nc(N4CCOCC4)c3s2)CC1 [Pictilisib] (partner 1 µM)
Outline: as §1

[4] = compound: COc1cccc2c1C(=O)c1c(O)c3c(c(O)c1C2=O)C[C@@](O)(C(=O)CO)C[C@@H]3O[C@H]1C[C@H](N)[C@H](O)[C@H](C)O1 [Doxorubicin] + Nc1nc2[nH]cc(CCc3ccc(C(=O)N[C@@H](CCC(=O)O)C(=O)O)cc3)c2c(=O)[nH]1 [Pemetrexed] (partner 0.2 µM)
Outline: as §1

| Cell Line | relative viability ([1]; first compound 0.02 µM) | relative viability ([1]; first compound 0.06325 µM) | relative viability ([1]; first compound 0.2 µM) | relative viability ([1]; first compound 0.6325 µM) | relative viability ([1]; first compound 2 µM) | relative viability ([2]; first compound 0.02 µM) | relative viability ([2]; first compound 0.06325 µM) | relative viability ([2]; first compound 0.2 µM) | relative viability ([2]; first compound 0.6325 µM) | relative viability ([2]; first compound 2 µM) | relative viability ([3]; first compound 0.001 µM) | relative viability ([3]; first compound 0.003162 µM) | relative viability ([3]; first compound 0.01 µM) | relative viability ([3]; first compound 0.03162 µM) | relative viability ([3]; first compound 0.1 µM) | relative viability ([4]; first compound 0.001 µM) | relative viability ([4]; first compound 0.003162 µM) | relative viability ([4]; first compound 0.01 µM) | relative viability ([4]; first compound 0.03162 µM) | relative viability ([4]; first compound 0.1 µM) |
| --- | --- | --- | --- | --- | --- | --- | --- | --- | --- | --- | --- | --- | --- | --- | --- | --- | --- | --- | --- | --- |
| EMC-BAC-2 | 0.516 | 0.515 | 0.513 | 0.587 | 0.547 | 0.817 | 0.837 | 0.75 | 0.85 | 0.802 | 0.685 | 0.528 | 0.538 | 0.477 | 0.338 | 0.491 | 0.48 | 0.444 | 0.409 | 0.369 |
| LK-2 | 0.641 | 0.74 | 0.822 | 0.697 | 0.567 | 1.11 | 0.874 | 1.17 | 1.15 | 0.996 | 0.498 | 0.457 | 0.534 | 0.498 | 0.442 | 0.225 | 0.255 | 0.228 | 0.26 | 0.238 |
| NCI-H2228 | 0.989 | 0.916 | 0.731 | 0.766 | 0.553 | 0.702 | 0.654 | 0.782 | 0.736 | 0.561 | 0.154 | 0.272 | 0.295 | 0.153 | 0.117 | 0.335 | 0.344 | 0.32 | 0.278 | 0.244 |
| NCI-H460 | 0.171 | 0.126 | 0.256 | 0.257 | 0.086 | 0.58 | 0.442 | 0.482 | 0.398 | 0.174 | 0.246 | 0.393 | 0.392 | 0.309 | 0.249 | 0.0538 | 0.064 | 0.0574 | 0.0641 | 0.0392 |
| NCI-H1993 | 0.581 | 0.626 | 0.48 | 0.688 | 0.524 | 0.644 | 0.674 | 0.719 | 0.758 | 0.703 | 0.78 | 0.817 | 0.748 | 0.814 | 0.656 | 0.603 | 0.685 | 0.58 | 0.57 | 0.528 |
| NCI-H2170 | 0.338 | 0.404 | 0.425 | 0.412 | 0.306 | 0.775 | 0.869 | 0.801 | 0.857 | 0.512 | 0.234 | 0.302 | 0.352 | 0.316 | 0.38 | 0.248 | 0.265 | 0.32 | 0.252 | 0.274 |
| LXF-289 | 0.533 | 0.587 | 0.62 | 0.677 | 0.665 | 0.991 | 1.09 | 1.03 | 1.14 | 1.05 | 0.698 | 0.772 | 0.716 | 0.783 | 0.745 | 0.95 | 0.917 | 0.839 | 1.03 | 0.929 |
| NCI-H596 | – | – | – | – | – | 0.428 | 0.482 | 0.108 | 0.479 | 0.407 | 0.353 | 0.436 | 0.41 | 0.44 | 0.379 | 0.499 | 0.505 | 0.526 | 0.473 | 0.486 |
| NCI-H1299 | – | – | – | – | – | 1.05 | 1.08 | 1.07 | 1 | 1.03 | 0.799 | 0.762 | 0.699 | 0.273 | 0.196 | – | – | – | – | – |
| ABC-1 | 0.39 | 0.576 | 0.705 | 0.796 | 0.716 | 1.06 | 1.14 | 1.15 | 0.968 | 1.06 | 0.849 | 0.642 | 0.566 | 0.317 | 0.356 | – | – | – | – | – |
| IA-LM | – | – | – | – | – | 0.805 | – | 0.98 | 0.748 | 0.661 | 0.287 | 0.341 | 0.254 | 0.0936 | 0.0491 | – | – | – | – | – |
| ChaGo-K-1 | 0.934 | 0.846 | 0.89 | 0.916 | 0.865 | – | – | – | – | – | 0.971 | 0.506 | 0.621 | 0.369 | 0.238 | 0.264 | 0.254 | 0.231 | 0.259 | 0.273 |
| NCI-H1563 | – | – | – | – | – | 1.02 | 0.905 | 0.894 | 0.894 | 0.683 | 0.585 | 0.602 | 0.62 | 0.541 | 0.532 | 0.734 | 0.825 | 0.838 | 0.777 | 0.536 |
| NCI-H1703 | – | – | – | – | – | 0.377 | 0.385 | 0.317 | 0.305 | 0.218 | 0.258 | 0.227 | 0.189 | 0.177 | 0.136 | – | – | – | – | – |
| SW 900 | 0.518 | – | – | 0.566 | 0.434 | – | – | – | – | – | – | – | – | – | – | – | 0.461 | 0.465 | 0.498 | 0.412 |
| NCI-H727 | 0.737 | 0.588 | 0.637 | 0.635 | 0.631 | 0.611 | 0.615 | 0.609 | 0.721 | 0.488 | 0.334 | 0.342 | 0.353 | 0.391 | 0.356 | – | – | – | – | – |
| NCI-H1650 | 0.316 | 0.291 | 0.37 | 0.413 | 0.298 | – | – | – | – | – | 0.29 | 0.371 | 0.241 | 0.159 | 0.119 | 0.37 | 0.374 | 0.381 | 0.242 | 0.19 |
| A549 | – | – | – | – | – | 0.81 | 0.658 | 0.846 | 0.718 | 0.573 | 0.49 | 0.355 | 0.201 | 0.0558 | 0.0454 | – | – | – | – | – |
| NCI-H2342 | 0.469 | 0.48 | 0.517 | 0.602 | 0.63 | – | – | – | – | – | – | – | – | – | – | 0.802 | 0.843 | 0.761 | 0.711 | 0.818 |
| NCI-H522 | 0.938 | 0.823 | 1.23 | 0.982 | 0.704 | – | – | – | – | – | – | – | – | – | – | 0.949 | 1.02 | 1.16 | 0.844 | 0.878 |
| EBC-1 | – | – | – | – | – | 0.907 | 0.902 | 0.869 | 0.928 | 0.686 | 0.388 | 0.405 | 0.295 | 0.195 | 0.11 | – | – | – | – | – |
